Measured values published in patent US20260356841A1, “HETEROCYCLIC PYRIDINONE COMPOUNDS AS TRIGGERING RECEPTOR EXPRESSED ON MYELOID CELLS 2 AGONISTS AND METHODS OF USE” (Vigil Neuroscience, Inc., priority 2023, published 2026).

What follows are molecules tested against T1, human TREM2 (Homo sapiens, UniProt Q9NZC2) (assay: TREM2 agonist potency by cellular phosphorylation of Spleen Tyrosine Kinase (Syk), AlphaLisa, HEK293T-hTREM2 cells). Settings: hTREM2 EC50 Data (HEK293 Cells); Syk phosphorylation, AlphaLisa; read-out: hTREM2 EC50.
T1 construct: expressed in transfected cells; host or cells: HEK293T (HEK293T-hTREM2 cells)
T1 sequence (Q9NZC2 19-230): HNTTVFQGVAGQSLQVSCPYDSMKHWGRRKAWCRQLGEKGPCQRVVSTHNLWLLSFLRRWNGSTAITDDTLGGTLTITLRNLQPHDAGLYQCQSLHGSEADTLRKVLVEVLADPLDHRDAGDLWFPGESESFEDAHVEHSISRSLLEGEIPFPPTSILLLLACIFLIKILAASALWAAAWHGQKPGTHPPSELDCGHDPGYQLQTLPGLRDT
T1 sequence (O43914 22-113 partner): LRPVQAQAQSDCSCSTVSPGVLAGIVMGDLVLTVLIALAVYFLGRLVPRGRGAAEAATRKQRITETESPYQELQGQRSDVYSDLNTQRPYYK
Assay type: cell-based
Protocol: Measurement of TREM2 agonist potency was done using a HEK cell line expressing human TREM2 and DAP12 (HEK293T-hTREM2 cells). Binding of small molecules to, and activation of, TREM2 increases the phosphorylation of Syk. The resultant levels of Syk phosphorylation are measured using a commercial AlphaLisa reagent kit. To perform the assay, HEK-hTREM2 cells were plated at 14,000 cells per well in a 384 well plate, in 25 μL of complete growth media and incubated at 37° C., 5% CO2 for 20-24 hours.
Prior to the assay, test compounds were diluted in the 384 well plates in assay buffer and allowed to equilibrate for 30 minutes. Growth media was removed from cell plates by inversion on blotting paper, and 25 μL of test articles in assay buffer was added to cells. Cells were incubated for 45 minutes at room temperature. After 45 minutes, assay buffer was removed and 10 μL of lysis buffer was added. Plates were shaken for 20 minutes at 350 RPM at room temperature. After complete lysis, AlphaLisa reagents were added to the lysate, and fluorescence intensity was measured using a Perkin Elmer Envision plate reader. Intensities were used to generate a standard curve, and % activation was calculated. Curve fitting was performed using Prism v9 software, log (agonist) vs response-variable slope (four parameters), and EC50s were calculated from the curve fit.
The results presented in Table B have been generated with the in vitro assay described above. This assay may be used to test any of the compounds described herein to assess and characterize a compound's ability to act as an agonist of TREM2.

EC50 [nM]	SMILES
< 100	Cc1nc2nc([C@H]3CCO[C@@H](c4ccc(=O)n(C)c4)C3)nc(C34CC(C(F)F)(C3)C4)c2nc1C [Example 31, 5-[(2R,4S)-4-[4-[3-(difluoromethyl)-1-bicyclo[1.1.1]-pentanyl]-6,7-dimethyl-pteridin-2-yl]-tetrahydropyran-2-yl]-1-methyl-pyridin-2-one]
100 to 500	Cc1nc2nc([C@@H]3CCO[C@H](c4ccc(=O)n(C)c4)C3)nc(C34CC(C(F)F)(C3)C4)c2nc1C [Example 32, 5-[(2S,4R)-4-[4-[3-(difluoromethyl)-1-bicyclo[1.1.1]-pentanyl]-6,7-dimethyl-pteridin-2-yl]tetrahydropyran-2-yl]-1-methyl-pyridin-2-one]
< 100	Cc1nc2nc([C@H]3CCO[C@@H](c4ccc(=O)[nH]c4)C3)nc(C34CC(C(F)(F)F)(C3)C4)c2nc1C [Example 34, 5-[(2R,4S)-4-[6,7-dimethyl-4-[3-(trifluoromethyl)-1-bicyclo[1.1.1]pentanyl]pteridin-2-yl]tetrahydropyran-2-yl]-1H-pyridin-2-one]
< 100	[2H]C([2H])([2H])n1cc([C@H]2C[C@@H](c3nc(C45CC(C(F)(F)F)(C4)C5)c4nc(C)c(C)nc4n3)CCO2)ccc1=O [Example 36]
< 100	Cc1nc2nc([C@H]3CCO[C@@H](c4ccc(=O)n(C)c4)C3)nc(C34CC(C(C)(F)F)(C3)C4)c2nc1C [Example 38, 5-[(2R,4S)-4-[4-[3-(1,1-difluoroethyl)-1-bicyclo[1.1.1]pentanyl]-6,7-dimethyl-pteridin-2-yl]tetrahydropyran-2-yl]-1-methyl-pyridin-2-one]
< 100	Cc1nc2nc([C@H]3CCO[C@@H](c4ccc(=O)n(C)c4)C3)nc([C@H]3CC[C@H](F)CC3)c2nc1C [Example 42, 5-((2R,4S)-4-(4-((1r,4S)-4-fluorocyclohexyl)-6,7-dimethyl-pteridin-2-yl)tetrahydro-2H-pyran-2-yl)-1-methylpyridin-2(1H)-one]
< 100	Cc1nc2nc([C@H]3CCO[C@@H](c4ccc(=O)n(C)c4)C3)nc([C@H]3CC[C@@H](F)CC3)c2nc1C [Example 43, 5-((2R,4S)-4-(4-((1s,4R)-4-fluorocyclohexyl)-6,7-dimethylpteridin-2-yl)tetrahydro-2H-pyran-2-yl)-1-methylpyridin-2(1H)-one]
< 100	Cc1nc2nc([C@H]3CCO[C@@H](c4ccc(=O)n(C)c4)C3)nc(C34CC(CC(F)F)(C3)C4)c2nc1C [Example 46, 5-[(2R,4S)-4-[4-[3-(2,2-difluoroethyl)-1-bicyclo[1.1.1]pentanyl]-6,7-dimethyl-pteridin-2-yl]tetrahydropyran-2-yl]-1-methyl-pyridin-2-one]
< 100	Cc1nc2nc([C@H]3CCO[C@@H](c4ccc(=O)n(C)c4)C3)nc(C34CC(CCF)(C3)C4)c2nc1C [Example 48, 5-((2R,4S)-4-(4-(3-(2-fluoroethyl)bicyclo[1.1.1]pentan-1-yl)-6,7-dimethylpteridin-2-yl)tetrahydro-2H-pyran-2-yl)-1-methylpyridin-2(1H)-one]
< 100	Cc1nc2nc([C@H]3CCO[C@@H](c4ccc(=O)n(C)c4)C3)nc(C3CCC(CF)CC3)c2nc1C (stereo partly drawn) [Example 50, 5-[(2R,4S)-4-[4-[4-(fluoromethyl)-cyclohexyl]-6,7-dimethyl-pteridin-2-yl]tetrahydropyran-2-yl]-1-methyl-pyridin-2-one]
< 100	Cc1nc2nc([C@H]3CCO[C@@H](c4ccc(=O)n(C)c4)C3)nc(C34CC(C(C)(C)F)(C3)C4)c2nc1C [Example 52, 5-[(2R,4S)-4-[4-[3-(1-fluoro-1-methyl-ethyl)-1-bicyclo[1.1.1]pentanyl]-6,7-dimethyl-pteridin-2-yl]tetrahydropyran-2-yl]-1-methyl-pyridin-2-one]
< 100	Cc1nc2nc([C@H]3CCO[C@@H](c4ccc(=O)n(C)c4)C3)nc(C34CC(CC(F)(F)F)(C3)C4)c2nc1C [Example 54, 5-[(2R,4S)-4-[6,7-dimethyl-4-[3-(2,2,2-trifluoroethyl)-1-bicyclo[1.1.1]pentanyl]pteridin-2-yl]tetrahydro-2H-pyran-2-yl]-1-methyl-pyridin-2(1H)-one]
< 100	Cc1nc2nc([C@H]3C[C@@H](C)O[C@@H](c4ccc(=O)n(C)c4)C3)nc(C34CC(C(F)(F)F)(C3)C4)c2nc1C [Example 56, 5-[(2R,4S,6R)-4-[6,7-dimethyl-4-[3-(trifluoromethyl)-1-bicyclo[1.1.1]-pentanyl]pteridin-2-yl]-6-methyl-tetrahydropyran-2-yl]-1-methyl-pyridin-2-one]
< 100	Cc1nc2nc([C@H]3CCO[C@@H](c4ccc(=O)n(C)c4)C3)nc(C34CCC(C(C)(F)F)(CC3)C4)c2nc1C [Example 60, 5-((2R,4S)-4-(4-(4-(1,1-difluoroethyl)bicyclo[2.2.1]heptan-1-yl)-6,7-dimethylpteridin-2-yl)tetrahydro-2H-pyran-2-yl)-1-methylpyridin-2(1H)-one]
< 100	Cc1nc2nc(N3C[C@@H](C)O[C@@H](c4ccc(=O)n(C)c4)C3)nc(C34CC(C(F)(F)F)(C3)C4)c2nc1C [Example 62, 5-[(2S,6R)-4-[6,7-dimethyl-4-[3-(trifluoro-methyl)-1-bicyclo[1.1.1]pentanyl]pteridin-2-yl]-6-methyl-morpholin-2-yl]-1-methyl-pyridin-2-one]
< 100	Cc1nc2nc([C@H]3CCO[C@@H](c4ccc(=O)n(C5CC5)c4)C3)nc(-c3ccc(C(F)(F)F)cc3F)c2nc1C [Example 64, 1-cyclopropyl-5-[(2R,4S)-4-[4-[2-fluoro-4-(trifluoromethyl)phenyl]-6,7-dimethyl-pteridin-2-yl]tetrahydropyran-2-yl]pyridin-2-one]
< 100	Cc1nc2nc([C@@H]3CCO[C@H](c4ccc(=O)n(C5CC5)c4)C3)nc(-c3ccc(C(F)(F)F)cc3F)c2nc1C [Example 65, 1-cyclopropyl-5-[(2S,4R)-4-[4-[2-fluoro-4-(trifluoromethyl)phenyl]-6,7-dimethyl-pteridin-2-yl]tetrahydropyran-2-yl]pyridin-2-one]
< 100	Cc1nc2nc([C@@H]3CCO[C@@H](c4ccc(=O)n(C5CC5)c4)C3)nc(-c3ccc(C(F)(F)F)cc3F)c2nc1C [Example 66, 1-cyclopropyl-5-[(2R,4R)-4-[4-[2-fluoro-4-(trifluoromethyl)phenyl]-6,7-dimethyl-pteridin-2-yl]tetrahydropyran-2-yl]pyridin-2-one]
< 100	Cc1nc2nc([C@H]3CCO[C@@H](c4ccc(=O)n(C(C)C)c4)C3)nc(-c3ccc(C(F)(F)F)cc3F)c2nc1C [Example 68, 1-isopropyl-5-[(2R,4S)-4-[4-[2-fluoro-4-(trifluoromethyl)-phenyl]-6,7-dimethyl-pteridin-2-yl]tetrahydropyran-2-yl]pyridin-2-one]
< 100	Cc1nc2nc([C@@H]3CCO[C@H](c4ccc(=O)n(C(C)C)c4)C3)nc(-c3ccc(C(F)(F)F)cc3F)c2nc1C [Example 69, 1-isopropyl-5-[(2S,4R)-4-[4-[2-fluoro-4-(trifluoromethyl)-phenyl]-6,7-dimethyl-pteridin-2-yl]tetrahydropyran-2-yl]pyridin-2-one]
< 100	Cc1nc2nc([C@H]3CCO[C@@H](c4ccc(=O)n(CC(F)F)c4)C3)nc(C34CC(C(F)(F)F)(C3)C4)c2nc1C [Example 71, 1-(2,2-difluoroethyl)-5-[(2R,4S)-4-[6,7-dimethyl-4-[3-(trifluoromethyl)-1-bicyclo[1.1.1]pentanyl]pteridin-2-yl]tetrahydropyran-2-yl]pyridin-2-one]
< 100	Cc1nc2nc([C@@H]3CCO[C@H](c4ccc(=O)n(CC(F)F)c4)C3)nc(C34CC(C(F)(F)F)(C3)C4)c2nc1C [Example 72, 1-(2,2-difluoroethyl)-5-[(2S,4R)-4-[6,7-dimethyl-4-[3-(trifluoro-methyl)-1-bicyclo-[1.1.1]pentanyl]-pteridin-2-yl]tetrahydropyran-2-yl]pyridin-2-one]
< 100	Cc1nc2nc([C@H]3CCO[C@@H](c4ccc(=O)n(C5CC5)c4)C3)nc(C34CC(C(F)(F)F)(C3)C4)c2nc1C [Example 74, 1-cyclopropyl-5-[(2R,4S)-4-[6,7-dimethyl-4-[3-(trifluoromethyl)-1-bicyclo[1.1.1]pentanyl]pteridin-2-yl]tetrahydropyran-2-yl]pyridin-2-one]
< 100	Cc1nc2nc([C@@H]3CCO[C@H](c4ccc(=O)n(C5CC5)c4)C3)nc(C34CC(C(F)(F)F)(C3)C4)c2nc1C [Example 75, 1-cyclopropyl-5-[(2S,4R)-4-[6,7-dimethyl-4-[3-(trifluoromethyl)-1-bicyclo[1.1.1]-pentanyl]-pteridin-2-yl]tetrahydropyran-2-yl]pyridin-2-one]
< 100	Cc1nc2nc([C@H]3CCO[C@@H](c4ccc(=O)n(C(C)C)c4)C3)nc(C34CC(C(F)(F)F)(C3)C4)c2nc1C [Example 77, 1-isopropyl-5-[(2R,4S)-4-[6,7-dimethyl-4-[3-(trifluoromethyl)-1-bicyclo[1.1.1]-pentanyl]pteridin-2-yl]tetrahydropyran-2-yl]pyridin-2-one]
